This is an account of results in patent US6680301B2, “Transfer of molecules into the cytosol of cells” (Photocure AS, priority 1994, dated 2004).

One data set concerns V79 cells. In words: Protein synthesis after photosensitizer and light with or without gelonin. The format is cell-based, Chinese hamster. The note with it: 25 μg/ml AlPcS2a. The procedure:
FIG. 5 illustrates protein synthesis in V79 cells after treatment with 25 μg/ml AlPcS2 and light in the absence and presence of 1 μg/ml gelonin. Symbols: ● Photosensitizer+toxin; ◯ photosensitizer.
(§1) The intracellular location of the photosensitizers are lysosomal (TPPS4, TPPS2a, AlPcS2a) and extralysosomal (3-THPP). The following abbreviations are used: AlPcS2a for aluminum phtalocyanine with 2 sulfonate groups on adjacent phenyl rings; TPPS4 for meso-tetraphenylporphine with 4 sulfonate groups; TPPS2a for meso-tetraphenylporphine with 2 sulfonate groups on adjacent phenyl rings; 3-THPP for tetrahydroxylphenyl porphine. The cell lines used were carcinoma cells in situ from human cervix (NHIK 3025), Chinese hamster lung fibroblasts (V79), SV40-transformed African Green monkey kidney (CV1-simian fibroblasts-like cells) (Cos-7) human osteosarcoma cells (OHS) and small cell lung cancer cells (H146). All experiments were designed as in Example 1.
This example relates to use of the photosensitizer AlPcS2a in V79 cells with or without gelonin as the toxin (FIG. 5). […] (Moan, J., Berg, K., Anholt, H. and Madslien, K. (1994). Sulfonated aluminum phtalocyanines as sensitizers for photochemotherapy. Effects of small light doses on localization, dye fluorescence and photosensitivity in V79 cells. Int. J. Cancer 58: 865-870.)

Data set [1] deals with THX-cells. In words: Transfection efficiency after PCI with different doses of AlPcS2a (Example 20). The format is cell-based, human. The note with it: 5 or 40 μg/ml AlPcS2a, pEGFP-N1-polylysine complex, 2 or 4 min light. The procedure: FIG. 21 illustrates transfection efficiency after PCI with different doses of AlPcS2a. Cells were treated with different doses of the photosensitizer, transfected with a plasmid DNA-polylysine complex and analysed by flow cytometry as described in the text of Example 20. the white bars represent an AlPcS2a dose of 5 μg/ml, while the black bars represent 40 μg/ml.
THX-cells were seeded out into 6 well plates (60 000 cells per well). After overnight incubation AlPcS2a in concentrations of 5 μg/ml or 40 μg/ml was added, and the cells were incubated for 18 h at 37° C. The cells were then washed 3 times with culture medium and transfected with pEGFP-N1-polylysine complex (amount of plasmid 5 μg/ml, charge ratio 1.2, see Example 17) for 6 h. The transfected cells were washed once with medium, and after addition of 2 ml of culture medium the cells were exposed to red light (Phillips TL 20 W/09, filtered through a Cinemoid 35 filter) for 2 or 4 min (control cells were not exposed to the light) and incubated further at 37° C. for 40 hrs before flow cytometry analysis (see Example 17).

The subject of data set [2] is NHIK 3025 cells. The experiment in a line: Protein synthesis (3[H]leucine incorporation) after photosensitizer, toxin and light. In kind it is cell-based, human. The procedure: FIG. 2 illustrates protein synthesis in NHIK 3025 cells after treatment with gelonin in the absence or presence of TPPS2a and 50 sec light exposure. Symbols: ◯, TPPS2a+light; ●, −TPPS2a−light; ∇, +TPPS2a−light; ▾, −TPPS2a+light. […] Protein synthesis was measured by measuring incorporation of ^3[H]leucine into proteins, 24 hours after light exposure.
(§2) NHIK 3025 cells were incubated with TPPS2a (Formula I) and gelonin, separately or together for 18 hours, followed by 1 hour in TPPS2a and gelonin-free medium before the cells were exposed to light. Protein synthesis was measured 24 hours after exposure to light. The photodynamic treatment, which kills 10-20% of the cells alone, reduced the protein synthesis by 30-40% (FIG. 2).
as §1

Data set [3] has as its system NHIK 3025 cells. In words: Cell killing / clonogenic survival after TPPS2a, gelonin and light. In kind it is cell-based, human. The procedure:
as §2
NHIK 3025 cells were incubated with TPPS2a and gelonin according to the design of Example 1.
Clonogenic survival of the cells was measured 24 hours after exposure to light. […] This is in accordance with prior art regarding killing unwanted cells with PDT. […] Increased concentration of added gelonin leads to more gelonin in the cytosol, as indicated by an increased sensitivity of the cells to photoactivation.

The test system of another data set is lysosomal cathepsin. In words: Inhibition of lysosomal cathepsin by photodynamic action. The note with it: culture of NHIK 3025 cells. In kind it is cell-based, human. An excerpt:
This was a surprising effect of the present invention and assists in maintaining the viability and functionality of the cells after transporting molecules into cytosol by disrupting endosomal/lysosomal membranes.

The subject of data set [4] is THX-cells. The experiment in a line: PCI-induced transfection of TPPS2a-treated THX-cells (Example 23). The format is cell-based, human. The note with it: 2 μg/ml TPPS2a, blue light 30-150 s, pEGFP-N1-polylysine complex. The procedure:
FIG. 24 illustrates PCI induced transfection of TPPS2a-treated THX-cells. Cells were treated with TPPS2a and transfected with a complex of plasmid DNA and polylysine as described in the text of Example 23. After light treatment the cells were analysed by flow cytometry. The white circle represents the total population of living cells, the black sector represents the fraction of cells that was positive for GFP-expression. Light exposure times are indicated on the Figure.
A pEGFP-N1-polylysine complex (5 μg DNA, charge ratio 1.2 was prepared as described above (see Example 17).
THX-cells were seeded out into 6 well plates (60 000 cells per well). After overnight incubation 2 μg/ml of the photosensitizer TPPS2a was added and the cells were incubated further for 18 h at 37° C. The cells were then washed 3 times with culture medium and transfected with the pEGFP-N1-polylysine complex for 6 h. The transfected cells were washed once with medium, and after addition of 2 ml of culture medium the cells were exposed to blue light (Appl. Photophysics, Nood. 3026, London) for 30, 60, 90, 120 or 150 s (control cells were not exposed to the light) and incubated further at 37° C. After 2 days the cells were seeded out into bigger 3004 dishes and incubated further so that the total incubation time before flow cytometry analysis was 108 h.

The test system of another data set is THX human melanoma cells. In words: PCI relocalization of fluorescein-labeled ribozyme (fluorescence microscopy). The format is cell-based. The protocol:
FIG. 14 illustrates subcellular localization of a fluorescein-ribozyme (5.5 μM) and AlPcS2a (20 μg/ml) in THX cells after 18 h incubation followed by 1 h wash. The Figure illustrates localization without light exposure (A) and after 10 min red light exposure followed by 40 min incubation in the dark (B). (Magnification 40×2.5).
The ribozyme employed in this example was a 37-mer synthetic 2′-O-methylated ribozyme designed against mRNA of the metastasis associated protein capl. The sequence (SEQ ID NO:1) was as follows:
5′-UAGUUCUCU GAUGAGGCCGNUAGGCCGAAA CUUGUU Y-3′, (SEQ ID NO: 1) where N is bases with 2′-O-methylated ribose, Y is uridine with a 3′-3′ inverted thymidine at the 3′ end, N is fluorescein attached to uracil.
To study the intracellular localization of the photosensitizer AlPcS2a and the ribozyme, THX human melanoma cells were plated on 16 well Lab-Tek (Nunc Inc.) chamber slides (3000 cells well^−1). After 18 h the culture medium was replaced with fresh RPMI medium supplemented with 10% fetal calf serum (FCS, Integro b.v., Holland) and containing […] AlPcS2a and […] ribozyme. […]
Control cells were observed without irradiation. […] Phase-contrast and fluorescence micrographs were recorded by means of a cooled charge-coupled device (CCD) camera (Astromed 3200, Cambridge, England).

In another data set the test system is H146 cells. In words: Protein synthesis after TPPS2a and light with or without gelonin. The format is cell-based. The note with it: 0.3 μg/ml TPPS2a, 1 μg/ml gelonin. The procedure:
FIG. 6 illustrates protein synthesis in H146 cells after treatment with 0.3 μg/ml TPPS2a and light in the absence and presence of 1 μg/ml gelonin. Symbols as in FIG. 5.
as §1
(FIG. 6). TPPS2a is known to be lysosomally located in the cell. […]

The next data set deals with COS-7 cells. The description is as above. Particulars: 3 μg/ml TPPS2a, 1 μg/ml gelonin. The format is cell-based, African Green monkey. The procedure:
FIG. 11 illustrates protein synthesis in COS-7 cells after treatment with 3 μg/ml TPPS2a and light in the absence and presence of 1 μg/ml gelonin. Symbols as in FIG. 5.
as §1

In a further data set the test system is OHS cells. The description is as above. In kind it is cell-based, human. Particulars: 3 μg/ml TPPS2a, 3 μg/ml gelonin, 50 μM chloroquine or 10 mM NH4Cl. The procedure: FIG. 13 illustrates protein synthesis in OHS cells after treatment with 3 μg/ml TPPS2a for 18 hours followed by 4 hours in the absence of TPPS2a and in the absence or presence of 3 μg/ml gelonin before exposure to light. The cells were incubated for the same 4 hours in 50 μM chloroquine or 10 mM NH4Cl to inhibit lysosomal protein degradation.
as §1
(FIG. 13). In this cell line there is a considerable protein degradation in the lysosomes, which in the present example is inhibited by incubating the cells for 4 hours in either 50 μM chloroquine or 10 mM NH4Cl.

Entries after “also recorded” stand apart in the source; their conditions may differ. [FluoU] = uridine (ribose) carrying fluorescein on the base; {invT} = 3'-3' inverted thymidine; m = 2'-O-methyl; r = 2'-OH (RNA)

Consider “aluminum phtalocyanine with 2 sulfonate groups on adjacent phenyl rings [AlPcS2a, reference compound]”, for which the “protein synthesis with photosensitizer and light, without toxin” value in the data set on V79 cells (selected light dose) is “small reduction in protein synthesis”. Besides, the “percentage of transfected cells versus photosensitizer concentration” value in the data set on THX-cells [1] is “increased with increasing photosensitizer concentration”.
`Oc1cccc(-c2c3nc(c(-c4cccc(O)c4)c4ccc([nH]4)c(-c4cccc(O)c4)c4nc(c(-c5cccc(O)c5)c5ccc2[nH]5)C=C4)C=C3)c1` [3-THPP, tetrahydroxylphenyl porphine, reference compound]: in the data set on NHIK 3025 cells [2] (0.25 μg/ml 3-THPP, light, 1 μg/ml gelonin, comparative example), the “difference in protein synthesis effect with or without gelonin” value was “no significant difference”.
For the molecule `O=S(=O)(O)c1ccc(-c2c3nc(c(-c4ccc(S(=O)(=O)O)cc4)c4ccc([nH]4)c(-c4ccccc4)c4nc(c(-c5ccccc5)c5ccc2[nH]5)C=C4)C=C3)cc1` [TPPS2a, meso-tetraphenylporphine with 2 sulfonate groups on adjacent phenyl rings], in the data set with NHIK 3025 cells [2] (TPPS2a and light, no gelonin, 24 hours after light), the “reduction of protein synthesis by the photodynamic treatment alone” value is listed as 30-40%. Further, the “cells killed by the photodynamic treatment alone” value with NHIK 3025 cells [3] (TPPS2a and light, no gelonin) was 10-20%. Also, in the data set on NHIK 3025 cells [3] (light exposure increased, 24 hours after light), the “clonogenic survival with TPPS2a and light” value was “virtually all cells were killed”. The “inhibition of lysosomal cathepsin by photodynamic action” value with lysosomal cathepsin is “substantially inhibited”. In the data set on THX-cells [4], the “transfection-enhancing effect of PCI light treatment with TPPS2a as photosensitizer” value was “substantial transfection-enhancing effect; also recorded: essentially the same as for AIPcS2a”.
Turning to “ribozyme: 37-mer synthetic 2′-O-methylated fluorescein-labeled ribozyme designed against mRNA of the metastasis associated protein capl (SEQ ID NO:1) (UAGUUCUCUGAUGAGGCCGUUAGGCCGAAACUUGUUY; sugars from the 5' end mmmmmmmmmrrmrrrrmmrrrrrrmmrrrrmmmmmmr, [FluoU] at 20, 3' {invT}, backbone and the base at N not given here)”, in the data set on THX human melanoma cells (5.5 μM ribozyme, 20 μg/ml AlPcS2a, 18 h, no light), the “subcellular localization, nonirradiated cells” value is given as “mainly localized in intracellular granules”. The “subcellular localization after light exposure” value in the data set with THX human melanoma cells (10 min red light, then 40 min) is on record as “most of the ribozyme fluorescence was present in the cytosol”.
As for gelonin, in the data set with NHIK 3025 cells [2] (3.2 μg/ml TPPS2a, 50 sec light, measured 24 hours after light), the “IC50 of gelonin for inhibition of protein synthesis when combining PDT and gelonin” value amounted to 0.2 µg/mL. Further, in the data set with NHIK 3025 cells [2] (75 μg/ml TPPS4, 50 sec light, different gelonin concentrations), the “transport of gelonin into cells with TPPS4 and light” value is listed as “demonstrates transport of gelonin into NHIK 3025 cells”. The “transport of gelonin into cells in controls” value with NHIK 3025 cells [2] (gelonin alone with light, or TPPS4 and gelonin without light) is reported as “no transport of gelonin into the cells was obtained”. In addition, the “effect of gelonin alone on protein synthesis” value in the data set on NHIK 3025 cells [2] (gelonin alone, presence or absence of light, no PDT) is “inhibits protein synthesis to some extent”. Moreover, the “clonogenic survival when gelonin is added to TPPS2a and light” value in the data set on NHIK 3025 cells [3] (0.2 or 2.0 μg/ml gelonin) is listed as “the survival rate drops”. In addition, the “protein synthesis with photosensitizer, light and gelonin” value in the data set on V79 cells (1 μg/ml gelonin) is “profoundly reduced”. Besides, the “transport of toxin into cells by TPPS2a and light” value is recorded as “transport of the toxin gelonin into H146 cells without essentially affecting the viability of the cells” in the data set with H146 cells, “demonstrates the transport of gelonin into COS-7 cells” in the data set on COS-7 cells and “demonstrates the transport of gelonin into OHS cells” in the data set on OHS cells.
Take saporin: the “transport of toxin into cells by TPPS2a and light” value in the data set with NHIK 3025 cells [2] (3.2 μg/ml TPPS2a, 1 μg/ml toxin) is “demonstrates transport of the toxin saporin into NHIK 3025 cells”.
